Laboratory results from publication PMC7006784, “The combination of salvianolic acid A with latamoxef completely protects mice against lethal pneumonia caused by methicillin-resistant Staphylococcus aureus” (Emerging Microbes & Infections, 2020).

Columns and labels:
S. aureus USA300 [1] = assay: Pneumonia model, survival; type: in vivo, C57BL/6J mice; conditions: mice, 2 × 10^9 CFU i.n.; s.c. 100 mg/kg Sal A and/or 75 mg/kg latamoxef every 12 h, 96 h; PBS control 10%
Experimental: The animal experiments were performed using 6- to 8-week-old female C57BL/6J mice obtained from the Experimental Animal Center of Jilin University and conducted according to the guidelines of the Animal Care and Use Committee of Jilin University. The mouse S. aureus pneumonia model was generated as described previously. Briefly, the mice were anaesthetized with ether and inoculated with 30 μl bacterial resuspension via the left nare. The mice were then held upright to allow the bacteria to be inhaled into the lungs. For the survival assessment, groups of 10 mice were challenged with 2 × 10^9 CFU S. aureus. One hour after intranasal inoculation, the mice were subcutaneously injected with 100 mg/kg of Sal A, 75 mg/kg of latamoxef or 100 mg/kg of Sal A plus 75 mg/kg of latamoxef at 12 h intervals, and survival was assessed for 96 h. For the bacterial load, histopathological, and bronchoalveolar lavage fluid (BALF) experiments, mice were inoculated with 1 × 10^9 CFU S. aureus. The mice were then given a subcutaneous injection of 100 mg/kg Sal A, 75 mg/kg latamoxef or a combination of 100 mg/kg Sal A and 75 mg/kg every 12 h. After 24 h, the left lung of each anaesthetized mouse was aseptically excised and homogenized, and the CFU was determined by serial dilutions. […]

S. aureus USA300 [2] = assay: Pneumonia model, bacterial load and histopathology of the lungs; type: in vivo, C57BL/6J mice; conditions: mice, 1 × 10^9 CFU i.n., 24 h
Experimental: The animal experiments were performed using 6- to 8-week-old female C57BL/6J mice obtained from the Experimental Animal Center of Jilin University and conducted according to the guidelines of the Animal Care and Use Committee of Jilin University. The mouse S. aureus pneumonia model was generated as described previously. Briefly, the mice were anaesthetized with ether and inoculated with 30 μl bacterial resuspension via the left nare. The mice were then held upright to allow the bacteria to be inhaled into the lungs. For the survival assessment, groups of 10 mice were challenged with 2 × 10^9 CFU S. aureus. One hour after intranasal inoculation, the mice were subcutaneously injected with 100 mg/kg of Sal A, 75 mg/kg of latamoxef or 100 mg/kg of Sal A plus 75 mg/kg of latamoxef at 12 h intervals, and survival was assessed for 96 h. For the bacterial load, histopathological, and bronchoalveolar lavage fluid (BALF) experiments, mice were inoculated with 1 × 10^9 CFU S. aureus. The mice were then given a subcutaneous injection of 100 mg/kg Sal A, 75 mg/kg latamoxef or a combination of 100 mg/kg Sal A and 75 mg/kg every 12 h. After 24 h, the left lung of each anaesthetized mouse was aseptically excised and homogenized, and the CFU was determined by serial dilutions. The right lungs from each group of mice were excised for histopathological analysis, and the samples were fixed in 10% formalin and stained with haematoxylin and eosin (H&E).

In the case of CO[C@@]1(NC(=O)C(C(=O)O)c2ccc(O)cc2)C(=O)N2C(C(=O)O)=C(CSc3nnnn3C)CO[C@@H]21 (stereo partly drawn) [latamoxef], the survival rate (S. aureus USA300 [1]) is reported as 50%, the “viable MRSA loads in the lungs in comparison with the control” value (S. aureus USA300 [2]; s.c. 100 mg/kg Sal A and/or 75 mg/kg latamoxef every 12 h) is reported as “significantly decreased” and the “pulmonary inflammation (histopathology of the lungs)” value (S. aureus USA300 [2]; s.c. 100 mg/kg Sal A and/or 75 mg/kg latamoxef, H&E) is reported as “alleviated”.
